{
  "source": "patent US10064909B2",
  "about": "“Compositions and methods for chronic use of a weight-gaining compound” (priority 2015, dated 2018)",
  "key": {"GH": {"tested_on": "GH", "experiment": "One-year dog safety study: GH plasma levels", "type": "in vivo, Beagle dogs", "conditions": "dogs, Days 1, 170 and 351 following treatment", "protocol": "(§1) This study evaluated the safety of capromorelin in dogs. Thirty-two Beagle dogs were randomly assigned to four groups (n=4/sex/group) and received 0 mg/kg, 0.39 mg/kg, 9.2 mg/kg, or 52.4 mg/kg capromorelin (with the dose calculated per the tartrate salt) once daily by oral gavage for 12 consecutive months. Safety parameters were evaluated including clinical signs, food consumption, bodyweight, clinical pathology, urinalysis, ophthalmology, electrocardiogram and vital signs. Capromorelin, GH and IGF-1 were measured in plasma samples collected at various time points during the study. At the end of the dosing period, dogs were humanely euthanized and necropsied. Selected organs were weighed and tissue samples collected and processed for microscopic examination."}, "[1]": {"experiment": "Laboratory cats modelling CKD safety pilot study", "type": "in vivo", "source_text": "This study sought to define a capromorelin pharmacokinetic profile in serum of cats with compromised kidney function, to determine if accumulation of capromorelin in serum occurred after 14 days of treatment, and to observe cats for any potential adverse effects of treatment not seen in normal cats. The target population for the capromorelin oral solution included cats with CKD. Therefore, this study used laboratory with significant portions of their kidneys surgically removed and subsequently compromised kidney function indicated by increased serum creatinine and BUN. These cats were developed as a model by Charles River, and are maintained at a colony at their facility in Ballina, Ireland.\n(§2) Sixteen cats with compromised kidney function were enrolled in the study and randomized to three groups. Animals assigned to Group 1 (n=6) were administered AT-002 once on Day 0 by intravenous catheter at a dose rate of 0.75 mg/kg per cat. Animals assigned to Group 2 (n=6) were administered the AT-002 daily for 14 days by subcutaneous injection at a dose rate of 2 mg/kg. Subcutaneous and intravenous treatment routes were used to assure that sufficient drug exposure occurred. Animals assigned to Group 3 (n=4) served as untreated controls.\n(§3) Blood samples were collected for capromorelin and/or IGF-1 analysis from animals assigned to Group 1 on Study Day 0. Blood samples were also collected from animals assigned to Groups 2 and 3 on Study Days −1 and 13 (prior to dosing) for hematology and clinical chemistry analysis. Appetite was assessed by food intake and weight gain. Bodyweight measurements were performed on Days −7, −1 (all groups) and on Day 13 (Groups 2 and 3 only). Food intake was monitored from Day −7 to Day 13 inclusive for animals assigned to Groups 2 and 3. Animals were observed daily for clinical signs."}, "IGF-1": {"tested_on": "IGF-1", "experiment": "Laboratory cats modelling CKD safety pilot study: IGF-1 levels", "type": "in vivo", "conditions": "cats with compromised kidney function, 2 mg/kg subcutaneous injection for 14 days", "protocol": "as §2, §3"}, "[2]": {"experiment": "Safety of capromorelin administered daily to Beagle dogs for one year", "type": "in vivo", "conditions": "for high dose relative to proposed clinical dose for dogs (safety margin): 52.4 mg/kg vs proposed clinical dose; for high dose relative to proposed clinical dose for dogs (safety margin) / tolerability / toxicity: L-tartrate; for tolerability / toxicity: oral gavage once daily, doses up to 52.4 mg/kg", "protocol": "as §1"}},
  "note": "“Also recorded” adds a separate entry of the source.",
  "data": [
    {"smiles": "CN1N=C2CCN(C(=O)[C@@H](COCc3ccccc3)NC(=O)C(C)(C)N)C[C@@]2(Cc2ccccc2)C1=O.O=C(O)C(O)C(O)C(=O)O", "note": "[capromorelin, N-[(2R)-1-[(3aR)-2-methyl-3-oxo-3a-(phenylmethyl)-6,7-dihydro-4H-pyrazolo[4,3-c]pyridin-5-yl]-1-oxo-3-(phenylmethoxy)propan-2-yl]-2-amino-2-methylpropanamide L-tartrate]", "values": [
      {"measurement": "GH plasma levels", "setting": "GH", "result": "increased modestly"},
      {"measurement": "bodyweight", "setting": "[1]; Group 2, 2 mg/kg/day subcutaneous, Day -7 to Day 13", "result": "lost bodyweight"},
      {"measurement": "appetite stimulation (food intake, bodyweight)", "setting": "[1]; cats with compromised kidney function, 2 mg/kg subcutaneous daily 14 days", "result": "unable to stimulate appetite"},
      {"measurement": "drug accumulation (pharmacokinetic profiles)", "setting": "[1]; cats with compromised kidney function, IV 0.75 mg/kg once or SC 2 mg/kg daily 14 days", "result": "no evidence of drug accumulation"},
      {"measurement": "IGF-1 levels", "setting": "IGF-1", "result": "sustained increase"},
      {"measurement": "pressure rate quotient (PRQ) interval, electrocardiogram", "setting": "[2]; 52.4 mg/kg and 9.2 mg/kg groups, 1 to 2 hours following dosing", "result": "slight increases"},
      {"measurement": "absolute liver weights", "setting": "[2]; 52.4 mg/kg dose", "result": "Increased"},
      {"measurement": "red blood cells, hemoglobin and hematocrit", "setting": "[2]; 52.4 mg/kg group", "result": "slight deceases"},
      {"measurement": "cholesterol, HDL and alkaline phosphatase serum levels", "setting": "[2]; 52.4 mg/kg group compared to placebo", "result": "statistically significantly increased"},
      {"measurement": "high dose relative to proposed clinical dose for dogs (safety margin)", "setting": "[2]", "result": "about 17.5 times"},
      {"measurement": "high dose relative to proposed clinical dose for dogs (safety margin)", "setting": "[2]; listed as Capromorelin", "result": "approximately 17.5 times"},
      {"measurement": "hepatocellular cytoplasmic vacuolation", "setting": "[2]; all capromorelin treated groups", "result": "slight increase"},
      {"measurement": "clinical signs related to capromorelin", "setting": "[2]; dogs, 12 months, noted sporadically", "result": "salivation and loose stool"},
      {"measurement": "capromorelin plasma levels: accumulation", "setting": "[2]; dogs, Days 90, 181 and 349", "result": "no accumulation of drug"},
      {"measurement": "reddening/swollen paws", "setting": "[2]; dogs, higher dose treatments", "result": "increased incidence"},
      {"measurement": "tolerability / toxicity", "setting": "[2]; dogs, 12 months", "result": "well-tolerated; also recorded: favorable toxicology"},
      {"measurement": "tolerability / toxicity", "setting": "[2]; dogs, 12 months, listed as Capromorelin", "result": "minimal toxicity"},
      {"measurement": "effects on food consumption, bodyweight, ophthalmic exams, vital signs or gross pathology", "setting": "[2]; dogs, up to 52.4 mg/kg daily, 12 months", "result": "no negative effects"}
    ]}
  ]
}
